Reference: patent publication US20170143712A1, “Methods of Treating Cancers, Immune and Autoimmune Diseases, and Inflammatory Diseases Based on BTK Occupancy and BTK Resynthesis Rate” (Acerta Pharma B.V., priority 2014, published 2017)

How the values were obtained:
Format in all cases: in vivo
[1] = test system: established type II collagen-induced arthritis (CIA) in DBA/1 mice; test: 14-day mouse established type II collagen-induced arthritis (CIA), PO QD (Example 10); conditions: 0.2 mg/kg PO QD; mean(SE)
Protocol: Prior to dosing, the candidate anti-inflammatory agents were reconstituted either by vortexing or stirring. The candidate anti-inflammatory agents were administered to the DBA/1 mice daily (QD) by the oral (PO) route.
Immunization with heterologous type II collagen (CII) induces arthritis in mice of the DBA/1 strain, which is genetically susceptible to this disease. To develop an experimental model of autoimmunity more adequate for the study of human rheumatoid arthritis (RA), male DBA/1 mice were injected intradermally (ID) with bovine type II collagen to induce arthritis as reported by Trentham et al (Trentham D E, Townes A S, Kang A H Autoimmunity to type II collagen: an experimental model of arthritis. J. Exper. Med. 1977, 146:857-868) and Bendele A (Bendele A, Animal models of rheumatoid arthritis. J. Musculoskelet. Neuronal Interact. 2001, 1(4):377-85). Male DBA/1 mice (n=114) that were 6-7 weeks old and weighed approximately 18-27 grams (mean 22 g) at enrollment (arthritis day 1) were obtained from Taconic Farms, Inc. The male DBA/1 mice were at least 6 weeks old at time of first immunization and were housed 3-5/cage in shoe-box polycarbonate cages with wire tops, wood chip bedding, and suspended food and water bottles. These animals were identified by a distinct number of ink marks at the base of the tail delineating animal number. After enrollment, all cages were labeled with protocol number, group number, and animal numbers.
The male DBA/1 (n=10/group for arthritis) were anaesthetized with Isoflurane, shaved at the base of the tail, and injected intradermally with 150 μL of Freund's Complete Adjuvant (Difco, Detroit, Mich.) containing bovine type II collagen (BBP, batch #7) (1 mg/ml) at the base of the tail on day 0 and again on day 21. […] Randomization was done after swelling was obviously established in at least one paw (score of 1) and attempts were made to ensure approximately equal mean scores of 0.5-1 across groups at the time of enrollment. […] The male DBA/1 mice were terminated on arthritis day 14 (3 hours post-dose).
(§1) Efficacy evaluation of the administered anti-inflammatory agents was based on animal body weights, clinical arthritis scores, arthritis scores expressed as area under the curve (AUC), and histopathology on fore paws, hind paws, and knees. Histopathology results were expressed as 4 paws, knees only, or 6 joints (knees included). Day 13 was used as the endpoint for analysis of body weight change since the male DBA/1 mice were fasted overnight prior to necropsy on day 14.

[2] = test system: established type II collagen-induced arthritis (CIA) in DBA/1 mice; test: Mouse established CIA, dosing from arthritis day 8, QD or BID (Example 11)
Excerpt: A study was designed to determine the efficacy of a covalently acting BTK inhibitor, Formula (II) in inhibiting acute inflammation, pannus formation, cartilage destruction, and bone resorption associated with established type II collagen-induced arthritis (CIA) in DBA/1 mice. Immunization with heterologous type II collagen (CII) induces arthritis in mice of the DBA/1 strain, which is genetically susceptible to this disease. To develop an experimental model of autoimmunity more adequate for the study of human rheumatoid arthritis (RA), male DBA/1 mice were injected intradermally (ID) with bovine type II collagen to induce arthritis as reported by Trentham et al (Trentham D E, Townes A S, Kang A H Autoimmunity to type II collagen: an experimental model of arthritis. J. Exper. Med. 1977, 146:857-868) and Bendele A (Bendele A, Animal models of rheumatoid arthritis. J. Musculoskelet. Neuronal Interact. 2001, 1(4):377-85).
Following acclimatization, 6-7 week old male DBA/1 mice (n=10/group for arthritis) were immunized at the base of the tail, with 150 μL of Freund's Complete Adjuvant (Difco, Detroit, Mich.) containing 1 mg/mL bovine type II collagen by intradermal injection. Immunizations were performed day 0 and again on day 21. On study days 25-26, on day 8 following onset of arthritis, the mice were randomized into treatment groups. […] Dosing began on arthritis day 8 by oral gavage. Groups were treated with vehicle (0.4% HPMC, 0.2% Tween 80), Formula (II) at 25 mg/kg QD, Formula (II) at 12.5 mg/kg BID, or the reference compound dexamethasone (Dex) at 0.2 mg/kg QD. These animals were fasted overnight on arthritis day 20 (13 days after enrollment) prior to necropsy on arthritis day 21. Clinical scores were given for each of the paws (right front, left front, right rear, left rear) on arthritis days 1-21.
as §1, with “evaluation” for “evaluation of the administered anti-inflammatory agents”, “19” for “13”, “21.” for “14.”
Necropsies were conducted on fasted mice and terminal serum, fore paws, hind paws, and knees were collected into 10% neutral buffered formalin (NBF) for microscopy. Spleens were harvested and weighed.

[3] = test system: systemic lupus erythematosus (SLE) in MRL/MpJFASlpr mice; test: MRL/MpJFASlpr mouse model of systemic lupus erythematosus; conditions: 15 mg/kg IP QD
Protocol: A study designed to determine the effects of candidate anti-inflammatory agent Formula (II) in oral (PO), daily (QD) administration in the treatment of systemic lupus erythematosus (SLE) in MRL/MpJFASlpr mice. Formula (II) was preformulated in vehicle (0.4% HPMC, 0.1% Tween 80, with simethicone for antifoaming). The female MRL/MpJFASlpr mice were dosed with vehicle or Formula (II) (1, 5, or 25 mg/kg) daily (QD) by the oral (PO) route dosing, or they were dosed QD by the intraperitoneal (IP) route with the reference compound cyclophosphamide (15 mg/kg). Prior to dosing, the candidate anti-inflammatory agent was reconstituted either by vortexing or stirring. […]
Female MRL/MpJFASlpr mice (n=50) that were 8-9 weeks old and weighed approximately 28-41 grams (mean 34 g) at enrollment (mouse age approx. 12 weeks) were obtained from The Jackson Laboratory, Bar Harbor, Me. (stock number 000485). These mice were housed 3-5/cage in shoe-box polycarbonate cages with wire tops, wood chip bedding, and suspended food and water bottles. No concurrent medications were given.
When they were 12 weeks old (study day 0), the female MRL/MpJFASlpr mice (n=10/group) were randomized by body weight into 5 groups as shown above. Treatment was initiated after randomization and continued for […] (mouse age 12 weeks to 23 weeks).
Starting on study week one, and then every week thereafter urine from each animal was tested for proteinuria using the Clinitech Multistick test strip (Bayer). The animals were also observed daily for significant clinical signs, moribundity and mortality. […] Efficacy evaluation was based on animal body weights, proteinuria analysis, lymphadenopathy scores, skin lesion scores, organ weights, anti-dsDNA titers, clinical chemistry parameters, and histopathologic evaluation of the kidneys.
Any animals showing signs of morbundity were terminated immediately. At necropsy (3 h post-dose, mouse age 23 weeks), all remaining animals were anesthetized with Isoflurane and bled via cardiac puncture for serum and plasma (Li Heparin). The animals were bled to exsanguinate then euthanized by cervical dislocation. Spleens, kidneys (paired), and lymph nodes were collected and weighed. Kidneys were collected into 10% neutral buffered formalin (NBF). Spleens were placed in RPMI 1% FBS media for splenocyte isolation. Serum samples for potential clinical chemistry analysis were stored frozen at −80° C. until shipment to Antech Diagnostics. Plasma samples were stored frozen at −80° C. for mouse antidsDNA IgG analysis by ELISA.
Blood samples were drawn via cardiac puncture from Isoflurane anesthetized animals into serum separator microtainer tubes for clinical chemistries. Samples were shipped to Antech Diagnostics for analysis.

C[C@@H]1C[C@H]2[C@@H]3CCC4=CC(=O)C=C[C@]4(C)[C@@]3(F)[C@@H](O)C[C@]2(C)[C@@]1(O)C(=O)CO [Dex, dexamethasone, reference compound]
AUC (All Paws) - Corrected for Initial Score [1]: *−5.85(0.73)
Change in Body Weight (g) [1]: −2.22(0.54) g
Histopathology Summed Score Knees [1]: *1.80(0.66)
Histopathology Summed Score Paws [1]: *0.09(0.09)
Histopathology Summed Score Six-Joints [1]: *0.66(0.21)
Paw Score AUC (All Paws) [1]: *1.30(0.37)
AUC (All Paws) - Corrected for Initial Score ([2]; 0.2 mg/kg PO QD, mean(SE)): *−29.54(2.39)
Change in Body Weight (g) Days 1-19 ([2]; 0.2 mg/kg PO QD, mean(SE)): −0.17(0.28) g
Histopathology Summed Score Knees ([2]; 0.2 mg/kg PO QD, mean(SE)): *5.23(0.89)
Histopathology Summed Score Paws ([2]; 0.2 mg/kg PO QD, mean(SE)): *7.20(1.00)
Histopathology Summed Score Six-Joints ([2]; 0.2 mg/kg PO QD, mean(SE)): *6.54(0.91)
Paw Score AUC (All Paws) ([2]; 0.2 mg/kg PO QD, mean(SE)): *16.61(2.05)
absolute spleen weights, reduction vs vehicle controls ([2]; 0.2 mg/kg QD): 156%
knee bone resorption, reduction vs vehicle controls ([2]; 0.2 mg/kg QD): 88%
knee cartilage damage, reduction vs vehicle controls ([2]; 0.2 mg/kg QD): 39%
knee inflammation, reduction vs vehicle controls ([2]; 0.2 mg/kg QD): 57%
knee pannus formation, reduction vs vehicle controls ([2]; 0.2 mg/kg QD): 86%
six joint histopathology, reduction of summed scores ([2]; 0.2 mg/kg QD): 57%
summed knee scores, reduction vs vehicle controls ([2]; 0.2 mg/kg QD): 57%

O=P1(N(CCCl)CCCl)NCCCO1 (stereo not drawn) [Cyclophosphamide, cyclophosphamide, reference compound]
Percent Survival [3]: 100%
anti-dsDNA IgG levels in plasma, reduction vs Vehicle Disease Controls [3]: 76%
Histopathology Glomerulus Diameter ([3]; All Animals, mean (SE)): *67.73 (2.10)
Histopathology Interstitial Inflammation ([3]; All Animals, mean (SE)): *0.95 (0.19)
Histopathology Summed Score ([3]; All Animals, mean (SE)): *2.18 (0.57)
Kidney (paired) Weight (g) ([3]; All Animals, mean (SE)): *0.432 (0.01) g
Change in Body Weight (g) wk 1-12 ([3]; Term Animals, mean (SE)): 3.30 (0.32) g
Histopathology Glomerulus Diameter ([3]; Term Animals, mean (SE)): *67.73 (2.10)
Histopathology Interstitial Inflammation ([3]; Term Animals, mean (SE)): *0.95 (0.19)
Histopathology Summed Score ([3]; Term Animals, mean (SE)): *2.18 (0.57)
Kidney (paired) Weight (g) ([3]; Term Animals, mean (SE)): *0.432 (0.01) g
absolute cumulative lymph node weights, reduction vs Vehicle Disease Controls ([3]; all animals): 87%
absolute kidney weights, reduction vs Vehicle Disease Controls ([3]; all animals): 23%
absolute mesenteric lymph node weights, reduction vs Vehicle Disease Controls ([3]; all animals): 76%
absolute spleen weights, reduction vs Vehicle Disease Controls ([3]; all animals): 77%
glomerulus crescent score, reduction ([3]; all animals): 100%
glomerulus diameter, reduction ([3]; all animals): 89%
glomerulus score, reduction ([3]; all animals): 88%
interstitial inflammation, reduction ([3]; all animals): 74%
percent of glomeruli with crescents, reduction ([3]; all animals): 100%
protein cast score, reduction ([3]; all animals): 90%
summed histopathology scores, reduction ([3]; all animals): 86%
vasculitis, reduction ([3]; all animals): 82%
serum clinical chemistries vs Vehicle Disease Controls ([3]; all animals or term animals only): significantly increased ALB, A/G, alkaline phosphatase (ALK), GLU, and Na/K and significantly reduced globulin (GLOB), BUN, BUN/creatinine, K, and AMY
urine protein scores vs Vehicle Disease Controls ([3]; all animals, mouse age 14-23 weeks): significantly reduced
lymphadenopathy scores vs Vehicle Disease Controls ([3]; mouse age 15-23 weeks, all or term animals): significantly reduced
skin lesion scores vs Vehicle Disease Controls ([3]; mouse age 20-23 weeks, all or term animals): significantly reduced
absolute cumulative lymph node weights, reduction vs Vehicle Disease Controls ([3]; term animals): 90%
absolute kidney weights, reduction vs Vehicle Disease Controls ([3]; term animals): 32%
absolute mesenteric lymph node weights, reduction vs Vehicle Disease Controls ([3]; term animals): 82%
absolute spleen weights, reduction vs Vehicle Disease Controls ([3]; term animals): 82%
glomerulus crescent score, reduction ([3]; term animals only): 100%
glomerulus diameter, reduction ([3]; term animals only): 85%
glomerulus score, reduction ([3]; term animals only): 86%
interstitial inflammation, reduction ([3]; term animals only): 70%
percent of glomeruli with crescents, reduction ([3]; term animals only): 100%
protein cast score, reduction ([3]; term animals only): 86%
summed histopathology scores, reduction ([3]; term animals only): 82%
vasculitis, reduction ([3]; term animals only): 80%
urine protein scores vs Vehicle Disease Controls ([3]; term animals only, mouse age 14-16 and 19-23 weeks): significantly reduced
body weight gain ([3]; week 1 to week 5): 1.03 g
